The subject of one assay is A. xylosoxidans 37F. Briefly: Antimicrobial microdilution assay (MIC/MBC). Particulars: Achromobacter xylosoxidans, 37F; for MIC: 37 °C, 24 h, read-out: MIC; for MBC: subcultivation, 24 h at 37 °C, read-out: MBC. It counts as cell-based, Achromobacter xylosoxidans. The protocol: (§1) The bacterial suspension (0.5 Mc Farland) was prepared, and twenty-fold dilutions of these suspensions were mixed in a 1:10 ratio with the corresponding polyphenol dilution (0.0039–1 mg/mL). Microtiter plates were incubated at 37 °C for 24 h. The lowest concentrations without visible growth (under a binocular microscope) were defined as MICs. The bactericidal concentrations (MBCs) were determined by serial subcultivation of 2 μL of the well’s content and further incubation for 24 h at 37 °C. Streptomycin (SigmaAldrich, Darmstadt, Germany) was used as a positive control. The polyphenols were obtained from Extrasynthese, Rhone, France (rutin, isoquercitrin) and SigmaAldrich, Germany (hesperetin, hesperidin, naringenin, naringin, taxifolin, morin, chlorogenic acid, ferulic acid, p-coumaric acid, and gallic acid). The stock compounds were prepared in ethanol (30%), and adequate ethanol concentrations were used as the negative control in the assays. Experiments were done in triplicate.
In general terms: Dilution methods test growth across graded concentrations, often in twofold steps.

The subject of assay [1] is Methicillin resistant S. aureus IBRS MRSA 011. Kind of assay: Antimicrobial microdilution assay (MIC/MBC). It is filed as cell-based, Staphylococcus aureus. The protocol:
as §1

The next assay relates to A. baumannii S2/2. Briefly: Antimicrobial microdilution assay (MIC/MBC). The settings on record: Acinetobacter baumannii, S2/2; for MIC: 37 °C, 24 h, read-out: MIC; for MBC: subcultivation, 24 h at 37 °C, read-out: MBC. It is filed as cell-based, Acinetobacter baumannii. The protocol:
as §1

Another assay deals with A. baumannii 6077/12. Kind of assay: Antimicrobial microdilution assay (MIC/MBC). It counts as cell-based, Acinetobacter baumannii. The settings on record: Acinetobacter baumannii, 6077/12; for MIC: 37 °C, 24 h, read-out: MIC; for MBC: subcultivation, 24 h at 37 °C, read-out: MBC. Here is the method:
as §1

The next assay has as its system S. infantis 1371/1. Briefly: Antimicrobial microdilution assay (MIC/MBC). It is filed as cell-based, Salmonella Infantis. Particulars: Salmonella enterica, 1371/1; for MIC: 37 °C, 24 h, read-out: MIC; for MBC: subcultivation, 24 h at 37 °C, read-out: MBC. Here is the method:
as §1

A further assay relates to P. aeruginosa IBRS P001. Kind of assay: Antimicrobial microdilution assay (MIC/MBC). It counts as cell-based, Pseudomonas aeruginosa. The settings on record: Pseudomonas aeruginosa, IBRSP001; for MIC: 37 °C, 24 h, read-out: MIC; for MBC: subcultivation, 24 h at 37 °C, read-out: MBC. Here is the method:
as §1

A further assay has as its system P. aeruginosa MMA83. Kind of assay: Antimicrobial microdilution assay (MIC/MBC). It is filed as cell-based, Pseudomonas aeruginosa. Particulars: Pseudomonas aeruginosa, MMA83; for MIC: 37 °C, 24 h, read-out: MIC; for MBC: subcultivation, 24 h at 37 °C, read-out: MBC. Here is the method: as §1
Another assay concerns HaCaT cells. Kind of assay: Cytotoxicity in HaCaT cell line (crystal violet assay). It counts as cell-based, human. Particulars: Homo sapiens; HaCaT, 24 h treatment, crystal violet; read-out: IC50 (compound concentration that inhibited 50% of the cell growth). Here is the method: For determination of the polyphenols’ cytotoxic effect, a crystal violet assay was used, with modifications. The cytotoxic effect of polyphenols was analyzed on spontaneously immortalized human skin keratinocytes (HaCaT, AddexBio No. T0020001, San Diego, CA, USA) cell lines. […] Cells (1 × 10^4 cells/well) were seeded in a 96-well plate (Sarstedt, Nümbrecht, Germany) 24 h before treatment. […] Cells were incubated with the compounds for 24 h. […] After crystal violet was removed, the plates were washed in a stream of tap water and left to air-dry at room temperature for 24 h. The absorbance was measured in a microplate reader (Multiskan™ FC Microplate Photometer, Thermo Scientific™) at 590 nm. The results were expressed as IC50 value in μg/mL. The criterion used to categorize the cytotoxic activity polyphenols was as follows: […] All analyses were performed in triplicate; each replicate was also quantified three times. Data were expressed as mean standard deviation, where applicable.

Another assay relates to E. coli IMD989. Briefly: Antimicrobial microdilution assay (MIC/MBC). It is filed as cell-based, Escherichia coli. Particulars: Escherichia coli, IMD989; for MIC: 37 °C, 24 h, read-out: MIC; for MBC: subcultivation, 24 h at 37 °C, read-out: MBC. The protocol: as §1
For another assay, the system named is E. coli IBRS E003. Kind of assay: Antimicrobial microdilution assay (MIC/MBC). The settings on record: Escherichia coli, IBRSE003; for MIC: 37 °C, 24 h, read-out: MIC; for MBC: subcultivation, 24 h at 37 °C, read-out: MBC. It is filed as cell-based, Escherichia coli. The protocol: as §1
The subject of the next assay is K. pneumoniae IT977. Kind of assay: Antimicrobial microdilution assay (MIC/MBC). It counts as cell-based, Klebsiella pneumoniae. Particulars: Klebsiella pneumoniae, IT977; for MIC: read-out: MIC; for MBC: subcultivation, 24 h at 37 °C, read-out: MBC. The protocol: as §1
Another assay deals with K. pneumoniae Ni9. Briefly: Antimicrobial microdilution assay (MIC/MBC). It is filed as cell-based, Klebsiella pneumoniae. The settings on record: Klebsiella pneumoniae, NI9; for MIC: read-out: MIC; for MBC: subcultivation, 24 h at 37 °C, read-out: MBC. Here is the method:
as §1

The mark [2] stands for this setting: Staphylococcus aureus, MRSA, 24 h.
[3] abbreviates: restated in the discussion for two strains examined.

Data on three molecules can be found in paper PMC8952364, “Polyphenols as Inhibitors of Antibiotic Resistant Bacteria—Mechanisms Underlying Rutin Interference with Bacterial Virulence” (Pharmaceuticals, 2022).

Values after ≈ are worked out from the molar mass of the structure shown. Like-named read-outs stand apart in the source and are kept apart here.

The MIC is the lowest concentration that inhibits growth of the organism. As a reminder, the MBC is the smallest concentration meeting the test's criterion for killing.

For the molecule `O=C(/C=C/c1ccc(O)c(O)c1)O[C@@H]1C[C@](O)(C(=O)O)C[C@@H](O)[C@H]1O` [Chlorogenic Acid, chlorogenic acid], the minimal inhibitory concentration (MIC) was 1000 µg/mL (≈ 2820 µM) in the assay with A. xylosoxidans 37F; 500 µg/mL (≈ 1410 µM) in assay [1] (setting [2]); 1000 µg/mL (≈ 2820 µM) with A. baumannii S2/2; 1000 µg/mL (≈ 2820 µM) in the assay on A. baumannii 6077/12; above 1000 µg/mL with S. infantis 1371/1; 500 µg/mL (≈ 1410 µM) in the assay on P. aeruginosa IBRS P001. In addition, the minimum inhibitory concentration (MIC) in the assay on P. aeruginosa MMA83 is 1000 µg/mL (≈ 2820 µM); in the assay with E. coli IMD989, above 1000 µg/mL; in the assay on E. coli IBRS E003 it was above 1000 µg/mL; with K. pneumoniae IT977 (37 °C, 24 h) it was above 1000 µg/mL; in the assay on K. pneumoniae IT977 (setting [3]), above 1000 µg/mL; in the assay on K. pneumoniae Ni9 (37 °C, 24 h), above 1000 µg/mL. The minimal inhibitory concentration (MIC) with K. pneumoniae Ni9 (setting [3]) is above 1000 µg/mL. Also, the MBC is above 1000 µg/mL in the assay on A. xylosoxidans 37F; 1000 µg/mL (≈ 2820 µM) in assay [1] (setting [2]); above 1000 µg/mL with A. baumannii S2/2; 1000 µg/mL (≈ 2820 µM) with A. baumannii 6077/12; above 1000 µg/mL in the assay on S. infantis 1371/1; 1000 µg/mL (≈ 2820 µM) with P. aeruginosa IBRS P001. The MBC in the assay with P. aeruginosa MMA83, in the assay with E. coli IMD989, with E. coli IBRS E003, in the assay with K. pneumoniae IT977 and in the assay on K. pneumoniae Ni9 was above 1000 µg/mL each time. Moreover, the IC50 with HaCaT cells came out at 279 ± 8 µg/mL (≈ 787 µM).
For the molecule `[H]/N=C(/N)N[C@H]1[C@H](O)[C@@H](O)[C@H](O[C@@H]2O[C@@H](C)[C@](O)(C=O)[C@H]2O[C@@H]2O[C@@H](CO)[C@H](O)[C@@H](O)[C@@H]2NC)[C@@H](N/C(N)=N\[H])[C@@H]1O` [Streptomycin, reference compound], the minimum inhibitory concentration (MIC) was above 1000 µg/mL in the assay with A. xylosoxidans 37F; 100 µg/mL (≈ 172 µM) in assay [1] (setting [2]); above 1000 µg/mL in the assay with A. baumannii S2/2; above 1000 µg/mL in the assay on A. baumannii 6077/12; above 1000 µg/mL with S. infantis 1371/1; 50 µg/mL (≈ 86 µM) in the assay on P. aeruginosa IBRS P001. In addition, the MIC in the assay with P. aeruginosa MMA83 was above 1000 µg/mL; in the assay with E. coli IMD989, 1000 µg/mL (≈ 1720 µM); with E. coli IBRS E003 it was 100 µg/mL (≈ 172 µM); with K. pneumoniae IT977 (37 °C, 24 h), above 1000 µg/mL; in the assay on K. pneumoniae Ni9 (37 °C, 24 h), above 1000 µg/mL. The MBC in the assay on A. xylosoxidans 37F was above 1000 µg/mL; in assay [1] (setting [2]), 800 µg/mL (≈ 1380 µM); in the assay with A. baumannii S2/2 it was above 1000 µg/mL; in the assay on A. baumannii 6077/12, above 1000 µg/mL; in the assay on S. infantis 1371/1 it was above 1000 µg/mL; in the assay on P. aeruginosa IBRS P001, 100 µg/mL (≈ 172 µM). Besides, the MBC with P. aeruginosa MMA83 was above 1000 µg/mL; with E. coli IMD989, above 1000 µg/mL; in the assay with E. coli IBRS E003 it was 200 µg/mL (≈ 344 µM); with K. pneumoniae IT977, above 1000 µg/mL; in the assay on K. pneumoniae Ni9, above 1000 µg/mL.
As for `O=C1C[C@@H](c2ccc(O)cc2)Oc2cc(O)cc(O)c21` [Naringenin, naringenin], the MIC was 1000 µg/mL (≈ 3670 µM) with A. xylosoxidans 37F; 250 µg/mL (≈ 918 µM) in assay [1] (37 °C, 24 h); 250 µg/mL (≈ 918 µM) in assay [1] (Staphylococcus aureus, MRSA, 37 °C, 24 h, read-out: MIC); 500 µg/mL (≈ 1840 µM) in the assay with A. baumannii S2/2; 500 µg/mL (≈ 1840 µM) in the assay with A. baumannii 6077/12; above 1000 µg/mL in the assay with S. infantis 1371/1. Also, the MIC was 250 µg/mL (≈ 918 µM) in the assay with P. aeruginosa IBRS P001; 1000 µg/mL (≈ 3670 µM) in the assay with P. aeruginosa MMA83; 1000 µg/mL (≈ 3670 µM) in the assay with E. coli IMD989; 500 µg/mL (≈ 1840 µM) with E. coli IBRS E003; 1000 µg/mL (≈ 3670 µM) with K. pneumoniae IT977 (37 °C, 24 h); 250 µg/mL (≈ 918 µM) in the assay with K. pneumoniae Ni9 (37 °C, 24 h). Also, the MBC in the assay on A. xylosoxidans 37F is 1000 µg/mL (≈ 3670 µM); in assay [1] (Staphylococcus aureus, MRSA, subcultivation, 24 h at 37 °C, read-out: MBC) it was 500 µg/mL (≈ 1840 µM); with A. baumannii S2/2 it was 500 µg/mL (≈ 1840 µM); with A. baumannii 6077/12, 500 µg/mL (≈ 1840 µM); in the assay on S. infantis 1371/1 it was above 1000 µg/mL; in the assay on P. aeruginosa IBRS P001 it was 500 µg/mL (≈ 1840 µM). Besides, the minimum bactericidal concentration (MBC) was 1000 µg/mL (≈ 3670 µM) in the assay with P. aeruginosa MMA83; above 1000 µg/mL in the assay with E. coli IMD989; 1000 µg/mL (≈ 3670 µM) with E. coli IBRS E003; 1000 µg/mL (≈ 3670 µM) with K. pneumoniae IT977; 500 µg/mL (≈ 1840 µM) in the assay with K. pneumoniae Ni9. Also, the IC50 in the assay with HaCaT cells was 528 ± 47 µg/mL (≈ 1940 µM).
